Literature values as cited in patent US20140256765A1, “TRANSMUCOSAL DRUG DELIVERY SYSTEM” (priority 2013, published 2014).

Experiments:
[1] = in vivo
[2] = at a pH of 6.8

SMILES: CN1CCCC1c1cccnc1 (centres unmarked) [nicotine]
- time to peak of plasma nicotine levels [1]: about 10 minutes
- nicotine in the free base form [2]: about 10%
